# Biological target: cAMP-dependent protein kinase catalytic subunit alpha (Bos taurus, UniProt P00517)
# Experiment: PKA Inhibition Assay
# Text: IC50 is the inhibitor concentration, which inhibits 50% of PKA activity that catalyzes the transfer of the terminal phosphate from [gamma-32P] labeled ATP to a synthetic kemptide peptide substrate.
Structure (SMILES),IC50,"IC50 (pH 7.4, 30 °C)"
"O=S(=O)(c1ccccc1)n1c2cc(O)c(O)cc2c2cc(O)c(O)cc21 [9-(benzenesulfonyl)-9H-carbazole-2,3,6,7-tetrol]",> 600 µM,–
"CCn1c(=O)c2cc(O)c(O)cc2c2cc(O)c(O)cc21 [5-ethyl-2,3,8,9-tetrahydroxy-5,6-dihydrophenanthridin-6-one]",–,> 2000 µM
"Oc1cc2nc(O)c3cc(O)c(O)cc3c2cc1O [2,3,8,9-tetrahydroxy-5,6-dihydrophenanthridin-6-one]",–,> 800 µM
